From patent publication US20220362326A1, “INHIBITING ZD17-JNK I[…] A THERAPY FOR ACUTE MYOCARDIAL INFARCTION” (The University of British Columbia, priority 2019, published 2022)
Ends that are not written are not given here.

Tests used:
[1] = tested on: rat model of AMI; assay: Rat model of AMI: TTC staining and measurement of heart infarct; format: in vivo, Sprague Dawley rats; details: rats, 20 mg/kg i.v. immediately after ligation, hearts removed four hours later; vs saline, P<0.01
[2] = tested on: pig model of transient AMI; assay: Pig model of transient AMI: histological analysis of hearts (H & E); format: in vivo, Chinese Bama miniature pigs
[3] = tested on: pig model of transient AMI; assay: Pig model of transient AMI: transthoracic echocardiography; format: in vivo, Chinese Bama miniature pigs; details: pigs, 2 mg/kg i.v. 40 min after occlusion and 24 hours after reperfusion, day 30, vs saline
[4] = tested on: pig model of transient AMI; assay: Pig model of transient AMI: TTC staining and heart infarct; format: in vivo, Chinese Bama miniature pigs; details: pigs, 2 mg/kg i.v. twice, day 30, TTC staining; vs saline, P<0.01
[5] = pigs, 2 mg/kg i.v. twice; vs saline group
Description: The heart rate (a), electrocardiogram (QRS duration (b), QRS voltage (c), T voltage (d) and ST voltage (e)), and body weight (f) were monitored before artery occlusion, after artery occlusion and after reperfusion. […] The NIMoEsh-Tat group: N=5; the saline group: N=5. Data are presented as mean±S.E.M.
The cardioprotective efficacy of the NIMoEsh-Tat peptide was also investigated in Chinese Bama miniature pigs. Transient AMI was induced in these pigs by occluding the left circumflex coronary artery for 1 hour, followed by blood reperfusion. Pigs received one i.v. injection of the NIMoEsh-Tat peptide (2 mg/kg) or saline 40 min after occlusion and another i.v. injection 24 hours after reperfusion. The pigs were evaluated for heart function on day 30 before they were sacrificed for histological analysis.

[6] = tested on: primary cardiomyocyte culture; assay: Cell death assays in H2O2-treated primary cardiomyocyte culture; format: cell-based, Sprague Dawley rats; details: 10 uM peptide, 30 min before 300 uM H2O2 (4 hrs) and during 12 hr recovery
Experimental: Hearts were removed from P1-2 Sprague Dawley rats and cut into 1 mm^3 cubes. The heart tissue was then digested in the cell digestion buffer at 37° C. for 4 min and centrifuged at 200 rpm for 1 min to remove the supernatant. The pellet was digested in the cell digestion buffer again at 37° C. until it was fully digested and then centrifuged at 200 rpm for 1 min to remove the debris. The sample was mixed with FBS to neutralize trypsin and collagenase and then centrifuged at 1000 rpm for 5 min to remove the supernatant. Cardiomyocytes were isolated from the sample by differential adhesion and then cultured in plates in the cell culture medium. Primary cardiomyocyte cultures were maintained in the 37° C. incubator with 95% […] and 5% CO2 for 5 days before being used for experiments.
Cell death of primary cardiomyocyte culture was measured using a variety of assays. MTT and the activity of creatine kinase, lactate dehydrogenase, malondialdehyde and superoxide dismutase were measured using commercial kits and according to manufacturer's instructions. Cell apoptosis assays were conducted by treating primary cardiomyocyte culture with the Annexin V-FITC cytotoxicity kit, followed by flow cytometry (BD, FACSlalibur) to determine the apoptosis percentage.
Primary cardiomyocyte cultures were treated with 300 uM H2O2 for 4 hours to induce oxidative stress. Then, cardiomyocytes were placed back in the normal culture medium for 12 hours before cell death analysis. 30 min before H2O2 treatment and during the 12 hour-recovery period, some cardiomyocytes were treated with 10 uM NIMoEsh-Tat peptide.

[7] = tested on: rat model of AMI; assay: Rat model of AMI: heart function (hemodynamic) measurement; details: rats, 20 mg/kg i.v. at 0, 24 and 48 hours after surgery, measured 4 weeks after last injection
Experimental: Rats were subjected to AMI by ligation of the left anterior descending coronary artery as described previously (Yu, J. G. et al. Acta Pharmacol Sin 34, 1508-1514, doi:10.1038/aps.2013.147 (2013)). Briefly, rats were anesthetized with 100 mg/kg ketamine hydrochloride and 10 mg/kg diazepam by intraperitoneal injection and then received artificial ventilation using a respirator (Shanghai Alcott Biotech, China, ALC-V8) with a tidal volume of 20 mL and a respiratory rate of 60/min. The heart was exteriorized through the 4th intercostal space and the left anterior descending coronary artery was ligated using a 6-0 suture. Rats were placed back in their home cages after the incision was closed. Sham rats underwent the same protocol except without ligation of the coronary artery.
Hemodynamic assessments in rats were conducted as described by Yu et al. (Acta Pharmacol Sin 34, 1508-1514, doi:10.1038/aps.2013.147 (2013)). Briefly, rats were anesthetized with 1.25 g/kg 25% urethane and a polyethylene catheter connected to a pressure transducer (Powerlab 30, ADlnstruments) was inserted into the right carotid artery and then advanced into the left ventricle cavity. The mean heart rate, systolic blood pressure, left ventricular systolic pressure (LVSP), left ventricular end diastolic pressure (LVEDP), and maximal rates of pressure rise (+dp/dtmax) and decline (−dp/dtmax) were recorded for 30 min and then analyzed.
Rats receiving sham surgery were used as control.

[8] = male pigs, 2 mg/kg, N number 5, day 30
[9] = male pigs, 2 mg/kg, N number 5, + = slight (almost invisible)
[10] = male pigs, 2 mg/kg, N number 5, ++ = mild (visible but very small)

WAAYRTHSVDYGRKKRRQRRR [NIMoEsh-Tat, WAAYRTHSVD-YGRKKRRQRRR]
percentage of heart tissue infarct after AMI (FIG. 2a-b) [1]: significantly reduced | Atrial fibrillation, Total (number of pigs) [2, 8]: 5 | Bleeding, Total (number of pigs) [2, 8]: 4 | Granuloma, Total (number of pigs) [2, 8]: 1 | Inflammation, Total (number of pigs) [2, 8]: 4 | Necrosis, Total (number of pigs) [2, 8]: 4 | Pericarditis, Total (number of pigs) [2, 8]: 0 | Atrial fibrillation, + (number of pigs) [2, 9]: 2 | Bleeding, + (number of pigs) [2, 9]: 4 | Granuloma, + (number of pigs) [2, 9]: 1 | Inflammation, + (number of pigs) [2, 9]: 4 | Pericarditis, + (number of pigs) [2, 9]: 0 | Atrial fibrillation, ++ (number of pigs) [2, 10]: 2 | Inflammation, ++ (number of pigs) [2, 10]: 0 | Necrosis, ++ (number of pigs) [2, 10]: 0 | Atrial fibrillation, +++ (number of pigs) ([2]; male pigs, 2 mg/kg, N number 5, +++ = moderate (visible and quantifiable)): 1 | Necrosis, grade not given (number of pigs) ([2]; male pigs, 2 mg/kg, N number 5, grade cell empty, line above ++): 4 | Pericarditis, grade not given (number of pigs) ([2]; male pigs, 2 mg/kg, N number 5, grade cell empty, line below +): 0 | AMI-induced pathology observed under microscope, summary ([2]; pigs, 2 mg/kg i.v. twice, day 30, vs saline controls): much less AMI-induced pathology | fibrillation in pig heart, H & E image (FIG. 3g) ([2]; pigs, 2 mg/kg i.v. twice, day 30, vs saline-treated pig heart): less fibrillation | stroke volume (SV, FIG. 3c) ([3]; P<0.001): rescued AMI-induced function deficits | ejection fraction (EF, FIG. 3d) ([3]; P<0.05): rescued AMI-induced function deficits | volume of AMI-induced heart infarct (FIGS. 3e and 3f) [4]: reduced the volume of AMI-induced heart infarct | body weight recovery after AMI (FIG. 4) [5]: same level of body weight recovery | H2O2-induced cell death, cell apoptosis assay (FIG. 1b) ([6]; Annexin V-FITC, flow cytometry): effectively reduced H2O2-induced cell death | CK activity in the culture medium (FIG. 1c) ([6]; vs H2O2 group): did not fully rescue H2O2-induced increase of CK activity, there was a trend of decreased CK activity | H2O2-induced cell death, MTT assay (FIG. 1a) ([6]; vs H2O2 group): effectively reduced H2O2-induced cell death | LDH activity in the culture medium (FIG. 1e) ([6]; vs H2O2 group): effectively reduced H2O2-induced cell death | MDA activity in cultured cells (FIG. 1d) ([6]; vs H2O2 group): effectively reduced H2O2-induced cell death | SOD activity in cultured cells (FIG. 1f) ([6]; vs H2O2 group): effectively reduced H2O2-induced cell death | +dp/dtmax, maximal rate of pressure rise (FIG. 2g) ([7]; vs saline): rescued heart function after AMI | left ventricular systolic pressure (FIG. 2e) ([7]; vs saline): rescued heart function after AMI | −dp/dtmax, maximal rate of pressure decline (FIG. 2h) ([7]; vs saline): rescued heart function after AMI | heart rate (FIG. 2c) ([7]; vs sham): neither saline or NIMoEsh-Tat peptide changed | systolic blood pressure (FIG. 2d) ([7]; vs sham): neither saline or NIMoEsh-Tat peptide changed
